Experimental data as given in patent publication US20030207843A1, “Treatment of drug-resistant human immunodeficiency virus infection” (priority 1999, published 2003).
Several values for one entry are separate records, joined by “and”; a condition that tells them apart may be missing. Equal values may be shown once.

Legend:
Assay type in all cases: cell-based
[1] = test system: HIV-1LAI selected with MB-PFA, passage 15; assay: Susceptibility of virus selected in vitro with MB-PFA
Description: (§1) Antiviral Susceptibility Assays. The antiviral activity of each compound was determined by inoculating MT-2 cells with HIV-1LAI at a multiplicity of infection (MOI) of 0.01 TCID50/cell, followed by incubation in the presence of three-fold serial drug dilutions (3 wells per dilution) (see Mellors, et. al., Antimicrob. Agents Chemother. 39:1087-1092). Five or seven days after infection, culture supernatants were harvested, lysed with 0.5% triton-X 100 and assayed for p24 antigen concentration using a commercial ELISA assay (DuPont, NEN Products, Wilmington, Del.). The antiviral activity of the compounds is expressed as the IC50, which is the concentration required to inhibit 50% of p24 antigen production. The fold-resistance of a test virus is calculated by dividing the IC50 of the test virus by the IC50 of the HIV-1LAI control virus.
Selection of Resistant Viruses. Selections were initiated by inoculating 1.0×10^6 MT-2 cells at an MOI of 0.1 with plasmid derived HIV-1LAI which had been passaged as cell-free virus 10 times in MT-2 cells in the absence of compound (see Bazmi, et. al., Antimicrobial Agents and Chemotherapy 44:1783-1788). Cells were pretreated with drug for two hours prior to inoculation with virus. For each selection, the starting concentration was the IC50 of the compound, and the selective pressure (i.e. drug concentration) was doubled every three passages. Viral cytopathic effects (CPE) were monitored daily. At 2+CPE (≧2 syncitia per 100× field) cell free virus supernatant was harvested and used to initiate a new cycle of infection in fresh MT-2 cells. The passaged virus was monitored regularly for a reduction in susceptibility to the compounds by determining the EC50 relative to unpassaged HIV-1LAI (Mellors, et. al., Antimicrob. Agents Chemother. 39:1087-1092).
Genetic Analyses. Virions were pelleted from culture supernatants by centrifugation at 25,000×g for 1 hour. Total RNA was extracted from the virus pellet using TRIZOL® Reagent (Gibco BRL, Grand Island, N.Y.) and resuspended in diethyl pyrocarbonate-treated sterile water. […]

[2] = test system: HIV-1LAI selected with PFA, passage 15 (S117T); assay: Susceptibility of virus selected in vitro with PFA, passage 15
Description: as §1
(§2) Selection of Resistant Viruses. […] Viral cytopathic effects (CPE) were monitored daily. […] The passaged virus was monitored regularly for a reduction in susceptibility to the compounds by determining the EC50 relative to unpassaged HIV-1LAI (Mellors, et. al., Antimicrob. Agents Chemother. 39:1087-1092). […]
(§3) As controls for the invention compound selections, HIV-1LAI was passaged in the presence and absence of unmodified PFA. […] None of the mutations selected by the invention compounds or free PFA were detected in control viruses passaged in the absence of drug.

[3] = test system: HIV-1LAI selected with PFA, passage 17 (W88G); assay: Susceptibility of virus selected in vitro with PFA, passage 17
Description: as §1, §2, §3

Question: For `CCCCCCCCCCCCCCCCCCOC[C@H](COP(=O)(O)C(=O)O)OC` [MB-PFA, 1-O-octadecyl-2-O-methyl-sn-glycero-3-PFA], which Fold resistance ([1]; Example 6, repeated selection, after 15 passages (M164I and L214 mutations, not V75L)) is on record?
Answer: 31 fold

Question: And the EC50 ([1]; Table 6, MB-PFA-selected virus, passage 15 (V75L, M164I, L214F))?
Answer: 2.16 µM

Question: And the Fold resist. ([1]; Table 6, MB-PFA-selected virus, passage 15, relative to passage 0)?
Answer: 27 and 30.9

Question: How did the EC50 ([2]; Human immunodeficiency virus 1, Table 6, passage 15 (S117T)) turn out when `O=C(O)P(=O)(O)O` [PFA, phosphonoformate, reference compound] was run?
Answer: 122 µM

Question: And the Fold resist. ([2]; Table 6, passage 15, relative to passage 0)?
Answer: 23 and 23.2

Question: What about the EC50 ([3]; Human immunodeficiency virus 1, Table 6, passage 17 (W88G)) of the same molecule?
Answer: 122 µM

Question: What about the Fold resist. ([3]; Table 6, passage 17, relative to passage 0) of the same molecule?
Answer: 23 and 23.2
